Legend:
Experiment in all cases: concentration in plasma after dosing
Rat [1] = tested on: Rat
Rat [2] = details: 3 h; dosed: Primidone; 130 mg/kg; oral; Female; F344
Rat [3] = details: 6 h; dosed: Primidone; 130 mg/kg; oral; Female; F344
Rat [4] = details: dosed: dichloroacetic acid, 10 mg/kg, oral, Male, Harlan Sprague Dawley

CCC1(c2ccccc2)C(=O)NC(=O)NC1=O [Phenobarbital]
concentration in plasma [ng/mL], Rat [1], dosed: Primidone, oral
Details	0.25 h	0.5 h	1.5 h	3 h	6 h	9 h	12 h	18 h	22 h	30 h
30 mg/kg, Female, F344	–	–	410	540	1060	900	1110	860	930	–
30 mg/kg, Male, F344	300	330	2030	2980	3510	2720	2430	1660	1060	–
80 mg/kg, Female, F344	–	–	630	1100	1960	2190	1980	1960	1500	–
80 mg/kg, Female, Harlan Sprague-Dawley	340	930	–	–	–	–	5660	–	–	–
80 mg/kg, Male, F344	–	–	3330	3620	6530	7430	–	4020	2870	–
130 mg/kg, Female, F344	–	960	870	4500	9670	3050	9030	–	2040	1920
130 mg/kg, Female, Harlan Sprague-Dawley	–	–	4090	–	–	–	–	–	–	–
130 mg/kg, Male, F344	–	–	4150	–	7700	9610	–	–	4120	2260
130 mg/kg, Male, Harlan Sprague Dawley	–	–	–	840	–	–	2490	–	–	–

Details	concentration in plasma [ng/mL]
Rat [2]	5510
Rat [3]	2210

O=C(O)C(Cl)Cl [dichloroacetic acid]
Rat [1], dosed: dichloroacetic acid
Details	concentration in plasma [ng/mL]
0.25 h, 10 mg/kg, oral, Male, Harlan Sprague Dawley	1600
0.25 h, 100 mg/kg, oral, Male, F344	24900
0.5 h, 10 mg/kg, oral, Male, Harlan Sprague Dawley	224
1 h, 40 mg/kg, oral, Female, Harlan Sprague Dawley	5910
1 h, 60 mg/kg, iv, Female, Harlan Sprague-Dawley	23200
1.25 h, 40 mg/kg, oral, Female, Harlan Sprague Dawley	3600
1.25 h, 100 mg/kg, oral, Male, F344	23000
1.5 h, 40 mg/kg, oral, Female, Harlan Sprague Dawley	4500
2 h, 40 mg/kg, oral, Female, Harlan Sprague Dawley	2200
2 h, 60 mg/kg, iv, Female, Harlan Sprague-Dawley	1670
2 h, 100 mg/kg, oral, Male, F344	44600
2 min, 10 mg/kg, iv, Male, F344	23500
2 min, 10 mg/kg, oral, Male, Harlan Sprague Dawley	222
2 min, 40 mg/kg, oral, Female, Harlan Sprague Dawley	1530
2 min, 100 mg/kg, oral, Male, F344	1590
4 h, 100 mg/kg, oral, Male, F344	49600
5 min, 10 mg/kg, iv, Male, F344	15300
5 min, 10 mg/kg, oral, Male, Harlan Sprague Dawley	822
5 min, 40 mg/kg, oral, Female, Harlan Sprague Dawley	3100
5 min, 100 mg/kg, oral, Male, F344	7760
6 h, 100 mg/kg, oral, Male, F344	25000
8 h, 100 mg/kg, oral, Male, F344	48300
10 min, 10 mg/kg, iv, Male, F344	7720
10 min, 10 mg/kg, oral, Male, Harlan Sprague Dawley	1450
10 min, 40 mg/kg, oral, Female, Harlan Sprague Dawley	9870
10 min, 100 mg/kg, oral, Male, F344	11800
20 min, 10 mg/kg, iv, Male, F344	1840
20 min, 10 mg/kg, oral, Male, Harlan Sprague Dawley	829
20 min, 40 mg/kg, oral, Female, Harlan Sprague Dawley	5350
20 min, 100 mg/kg, oral, Male, F344	5620
40 min, 10 mg/kg, oral, Male, Harlan Sprague Dawley	184
40 min, 40 mg/kg, oral, Female, Harlan Sprague Dawley	13900
40 min, 100 mg/kg, oral, Male, F344	53800
50 min, 10 mg/kg, oral, Male, Harlan Sprague Dawley	170

Rat [4]
Details	concentration in plasma [ng/mL]
10 min	438
50 min	158

— EPA's CvTdb concentration-time database
